Laboratory results published in PMC11823630, “In vitro potentiation of tetracyclines in Pseudomonas aeruginosa by RW01, a new cyclic peptide” (Antimicrobial Agents and Chemotherapy, 2024).
In brackets after ≈: the same amount, converted by molar mass. Where a SMILES comes first, the peptide text is derived from it.

Tests used:
C57BL/6J females [1] = assay: In vivo cumulative toxicity; set-up: species or system mice; settings: ip 0.2 mL once a day for 3 days at 500 mg/L; n = 6; observed 7 days
Protocol: (§1) To study the acute toxicity of RW01, two groups of n = 6 C57BL/6J females (≈20 g) were treated intraperitoneally (ip) with a single dose of 0.2 mL of 250 and 500 mg/L concentrations of RW01, respectively. After administration and for 7 days, the following indicative signs of pain were assessed: reduced water (dehydration), food intake, isolation, self-mutilation, tremors/spasms, dyspnea, physical activity (increased/reduced), chromodacryorrhea, muscle stiffness, piloerection, teeth grinding, and weight loss. For cumulative toxicity determination, a group of n = 6, 7-week-old healthy C57BL/6J females was treated ip, with a 0.2 mL single dose per day for 3 days at a concentration equivalent to 500 mg/L. After administration and for 7 days, the same indicative signs of pain/toxicity detailed in the acute toxicity studies were evaluated.

C57BL/6J females [2] = assay: In vivo acute toxicity; set-up: species or system mice; settings: single ip dose of 0.2 mL at 250 or 500 mg/L; n = 6 per group; observed 7 days
Protocol: as §1

[3] = system: PAO1 mutant MIN2_RW01_4, pmrB(M292T); assay: MIC, E-test on MHA; type: cell-based; settings: Pseudomonas aeruginosa, PAO1, read-out: MIC, E-test
[4] = system: PAO1 mutant MIN16_3, nfxB(nt79∆14), pilB(N349K); assay: MIC, E-test on MHA; type: cell-based; settings: Pseudomonas aeruginosa, PAO1, read-out: MIC, E-test
[5] = system: PAO1 mutant MIN8_1, nalD(R3C), pilM(Q62X); assay: MIC, E-test on MHA; type: cell-based; settings: Pseudomonas aeruginosa, PAO1, read-out: MIC, E-test
[6] = system: PAO1 mutant MIN4_RW01_3, pmrB(M292T); assay: MIC, E-test on MHA; type: cell-based; settings: Pseudomonas aeruginosa, PAO1, read-out: MIC, E-test
[7] = system: PAO1 mutant MIN4_RW01_2, pmrB(F124S); assay: MIC, E-test on MHA; type: cell-based; settings: Pseudomonas aeruginosa, PAO1, read-out: MIC, E-test
[8] = system: PAO1 mutant MIN16_2, nalC(aa9∆4), pilQ(nt46∆1); assay: MIC, E-test on MHA; type: cell-based; settings: Pseudomonas aeruginosa, PAO1, read-out: MIC, E-test
[9] = system: PAO1 mutant MIN8_4, pilZ(nt18InsT); assay: MIC, E-test on MHA; type: cell-based; settings: Pseudomonas aeruginosa, PAO1, read-out: MIC, E-test
[10] = system: PAO1 mutant MIN1_RW01_1, pmrB(Y98N); assay: MIC, E-test on MHA; type: cell-based; settings: Pseudomonas aeruginosa, PAO1, read-out: MIC, E-test
[11] = system: PAO1 mutant MIN1_RW01_4, pmrB(F124L); assay: MIC, E-test on MHA; type: cell-based; settings: Pseudomonas aeruginosa, PAO1, read-out: MIC, E-test
[12] = system: PAO1 mutant MIN16_4, nalC(T50P), pilM(Q62X); assay: MIC, E-test on MHA; type: cell-based; settings: Pseudomonas aeruginosa, PAO1, read-out: MIC, E-test
[13] = system: PAO1 mutant MIN4_RW01_4, pmrB(Y98N); assay: MIC, E-test on MHA; type: cell-based; settings: Pseudomonas aeruginosa, PAO1, read-out: MIC, E-test
[14] = system: PAO1 mutant MIN2_RW01_1, pmrB(V215L); assay: MIC, E-test on MHA; type: cell-based; settings: Pseudomonas aeruginosa, PAO1, read-out: MIC, E-test
[15] = system: PAO1 mutant MIN1_RW01_2, mexR(G58E), pilB(G326D), hutC(Y181X); assay: MIC, E-test on MHA; type: cell-based; settings: Pseudomonas aeruginosa, PAO1, read-out: MIC, E-test
[16] = system: PAO1 mutant MIN8_3, pilZ(nt18InsT); assay: MIC, E-test on MHA; type: cell-based; settings: Pseudomonas aeruginosa, PAO1, read-out: MIC, E-test
[17] = system: PAO1 mutant MIN2_RW01_2, pmrB(M292T); assay: MIC, E-test on MHA; type: cell-based; settings: Pseudomonas aeruginosa, PAO1, read-out: MIC, E-test
[18] = system: PAO1 mutant MIN8_2, pilZ(nt18InsT); assay: MIC, E-test on MHA; type: cell-based; settings: Pseudomonas aeruginosa, PAO1, read-out: MIC, E-test
[19] = system: PAO1 mutant MIN2_RW01_3, parS(V152A); assay: MIC, E-test on MHA; type: cell-based; settings: Pseudomonas aeruginosa, PAO1, read-out: MIC, E-test
[20] = system: PAO1 mutant MIN16_1, nalD(T43P); assay: MIC, E-test on MHA; type: cell-based; settings: Pseudomonas aeruginosa, PAO1, read-out: MIC, E-test
[21] = system: PAO1 mutant MIN4_RW01_1, pmrB(R429H); assay: MIC, E-test on MHA; type: cell-based; settings: Pseudomonas aeruginosa, PAO1, read-out: MIC, E-test
[22] = system: PAO1 mutant MIN32_1, mexR(R63H), pilB(N349K), PA0646(V316G); assay: MIC, E-test on MHA; type: cell-based; settings: Pseudomonas aeruginosa, PAO1, read-out: MIC, E-test
[23] = system: PAO1 mutant MIN1_RW01_3, pmrB(V215L); assay: MIC, E-test on MHA; type: cell-based; settings: Pseudomonas aeruginosa, PAO1, read-out: MIC, E-test
P. aeruginosa PAOUW = assay: MIC, CLSI broth microdilution in BD Phoenix AST Broth; type: cell-based, Pseudomonas aeruginosa; settings: strain PAOUW; antibiotic with RW01 at 100 mg/L
Protocol: (§2) MIC for RW01 was also tested.
(§3) FIC of RW01 (FICRW01)=MIC of RW01 in combination/MIC of RW01 alone,FIC of antibiotic (FICATB)=MIC of ATB in combination/MIC of ATB alone,FICI=FICRW01 +FICATB.
(§4) FICI was interpreted as follows: synergistic effect if FICI is ≤0.5; additive effect if 0.5 < FICI ≤ 1.0; indifferent effect if 1.0 < FICI ≤ 2.0; and finally, antagonistic effect if FICI is >2.0. The average FICI considering the antibiotic MIC (no growth in any of the replicates) at different concentrations of RW01 was calculated ([28]).

P. aeruginosa 125A = assay: as above; type: cell-based, Pseudomonas aeruginosa; settings: strain 125A; antibiotic with RW01 at 100 mg/L
Protocol: as §2, §3, §4

P. aeruginosa PAO1 = assay: as above; type: cell-based, Pseudomonas aeruginosa; settings: strain PAO1; antibiotic with RW01 at 100 mg/L
Protocol: as §2, §3, §4

P. aeruginosa 41B = assay: as above; type: cell-based, Pseudomonas aeruginosa; settings: strain 41B
Protocol: as §2, §3, §4

P. aeruginosa PAOUW∆oprF = assay: as above; type: cell-based, Pseudomonas aeruginosa
Protocol: as §2, §3, §4

P. aeruginosa PAOΔoprM = assay: as above; type: cell-based, Pseudomonas aeruginosa
Protocol: as §2, §3, §4

P. aeruginosa PAOΔmexR = assay: as above; type: cell-based, Pseudomonas aeruginosa
Protocol: as §2, §3, §4

P. aeruginosa 125B = assay: as above; type: cell-based, Pseudomonas aeruginosa; settings: strain 125B; antibiotic with RW01 at 100 mg/L
Protocol: as §2, §3, §4

P. aeruginosa PAOΔmexZ = assay: as above; type: cell-based, Pseudomonas aeruginosa; settings: strain PAOΔmexZ
Protocol: as §2, §3, §4

P. aeruginosa 41A = assay: as above; type: cell-based, Pseudomonas aeruginosa; settings: strain 41A
Protocol: as §2, §3, §4

PAO1 one-step mutants = assay: MIC, Sensititre custom plate, mutants summarised as a group; type: cell-based, Pseudomonas aeruginosa; settings: mutants generated by minocycline alone
Protocol: Selection of resistant mutants was performed for minocycline with and without RW01 in three independent replicates for wild-type P. aeruginosa reference strain PAO1. Tubes containing Mueller-Hinton broth (MHB) were inoculated and incubated for 24 h at 37°C. Afterward, 1/100 dilution of each tube was incubated at 37°C in MHB to late-exponential growth phase, measured by spectrophotometry at OD600. […] A control plate without antibiotic was included as inoculum control. After overnight incubation, colony counting of each treatment was performed to analyze the generation of resistant population. The mutant prevention concentration (MPC) was defined as the lowest concentration of antibiotic yielding no growth of resistant mutants. Selected mutants were checked for susceptibility profiles by using a Sensititre custom plate (Thermo Fisher Scientific, Massachusetts, USA) for Gram-negative bacteria, following the manufacturer’s instructions.

[24] = Pseudomonas aeruginosa, agent alone, 37°C, 18–22 h, three biological replicates
[25] = antibiotic with RW01 at 100 mg/L
[26] = strain PAOUWΔoprF (printed PAOΔoprF), antibiotic with RW01 at 100 mg/L
[27] = strain PAOΔoprM, antibiotic with RW01 at 100 mg/L
[28] = strain PAOΔmexR, antibiotic with RW01 at 100 mg/L

N=C(N)NCCC[C@@H]1NC(=O)[C@H]2C[C@H](N)CN2C(=O)[C@H](Cc2c[nH]c3ccccc23)NC(=O)[C@H](CCCNC(=N)N)NC(=O)[C@H]2CCCN2C(=O)[C@H](Cc2c[nH]c3ccccc23)NC1=O [RW01] (HELM PEPTIDE1{R.W.[dP].R.W.[N[C@H]1C[C@H](C(=O)[*:2])N([*:1])C1]}$PEPTIDE1,PEPTIDE1,1:R1-6:R2$$$V2.0)
signs of pain/toxicity, cumulative toxicity (C57BL/6J females [1]): None of the doses tested of RW01 showed any of the 11 symptoms indicative of pain/toxicity | signs of pain/toxicity, acute toxicity (C57BL/6J females [2]): None of the doses tested of RW01 showed any of the 11 symptoms indicative of pain/toxicity

CN(C)[C@@H]1C(O)=C(C(N)=O)C(=O)[C@@]2(O)C(O)=C3C(=O)c4c(O)cccc4[C@@](C)(O)[C@H]3C[C@@H]12 [Tetracycline, tetracycline]
MIC [3]: 96 µg/mL (≈ 216 µM) | MIC [4]: 128 µg/mL (≈ 288 µM) | MIC [5]: 256 µg/mL (≈ 576 µM) | MIC [6]: 256 µg/mL (≈ 576 µM) | MIC [7]: 64 µg/mL (≈ 144 µM) | MIC [8]: 96 µg/mL (≈ 216 µM) | MIC [9]: 64 µg/mL (≈ 144 µM) | MIC [10]: 192 µg/mL (≈ 432 µM) | MIC [11]: 64 µg/mL (≈ 144 µM) | MIC [12]: 64 µg/mL (≈ 144 µM) | MIC [13]: 96 µg/mL (≈ 216 µM) | MIC [14]: 128 µg/mL (≈ 288 µM) | MIC [15]: 256 µg/mL (≈ 576 µM) | MIC [16]: 64 µg/mL (≈ 144 µM) | MIC [17]: 192 µg/mL (≈ 432 µM) | MIC [18]: 256 µg/mL (≈ 576 µM) | MIC [19]: 256 µg/mL (≈ 576 µM) | MIC [20]: 256 µg/mL (≈ 576 µM) | MIC [21]: 256 µg/mL (≈ 576 µM) | MIC [22]: 256 µg/mL (≈ 576 µM) | MIC [23]: 256 µg/mL (≈ 576 µM) | FICI-determined effect (P. aeruginosa PAOUW): Synergy (synergistic effect if FICI is ≤0.5) | FICI-determined effect (P. aeruginosa 125A): Synergy (synergistic effect if FICI is ≤0.5) | FICI (P. aeruginosa PAO1): 0.445 | FICI-determined effect (P. aeruginosa PAO1): Synergy (synergistic effect if FICI is ≤0.5) | MIC (P. aeruginosa 41B; [24]): 16 µg/mL | FICI-determined effect (P. aeruginosa 41B; [25]): Additivity (additive effect if 0.5 < FICI ≤ 1.0) | FICI (P. aeruginosa PAOUW∆oprF; [26]): 0.223 | FICI-determined effect (P. aeruginosa PAOUW∆oprF; [26]): Synergy (synergistic effect if FICI is ≤0.5) | MIC (P. aeruginosa PAOUW∆oprF; strain PAOUWΔoprF, agent alone, 37°C, 18–22 h, three biological replicates): 16 µg/mL | MIC (P. aeruginosa PAOΔoprM; Pseudomonas aeruginosa): 1 µg/mL | Antibiotic MIC + RW01 100 mg/L (P. aeruginosa PAOΔoprM; strain PAOΔoprM, MIC of the antibiotic with fixed 100 mg/L RW01): 0.5 µg/mL | FICI (P. aeruginosa PAOΔoprM; [27]): 0.598 | FICI-determined effect (P. aeruginosa PAOΔoprM; [27]): Additivity (additive effect if 0.5 < FICI ≤ 1.0) | MIC (P. aeruginosa PAOΔmexR; Pseudomonas aeruginosa): 16 µg/mL | Antibiotic MIC + RW01 100 mg/L (P. aeruginosa PAOΔmexR; strain PAOΔmexR, MIC of the antibiotic with fixed 100 mg/L RW01): 4 µg/mL | FICI (P. aeruginosa PAOΔmexR; [28]): 0.348 | FICI-determined effect (P. aeruginosa PAOΔmexR; [28]): Synergy (synergistic effect if FICI is ≤0.5) | FICI (P. aeruginosa 125B): 0.445 | FICI-determined effect (P. aeruginosa 125B): Synergy (synergistic effect if FICI is ≤0.5) | MIC (P. aeruginosa PAOΔmexZ; [24]): 16 µg/mL | FICI (P. aeruginosa PAOΔmexZ; [25]): 0.223 | FICI-determined effect (P. aeruginosa PAOΔmexZ; [25]): Synergy (synergistic effect if FICI is ≤0.5) | MIC (P. aeruginosa 41A; [24]): 16 µg/mL | FICI-determined effect (P. aeruginosa 41A; [25]): Additivity (additive effect if 0.5 < FICI ≤ 1.0)

colistin
colistin MIC vs wild type (PAO1 one-step mutants): remained unchanged
